US10350210B2, “EGFR and ALK dual inhibitor” (PRECEDO PHARMACEUTICALS CO., LTD, priority 2015, dated 2019)
Like-named read-outs stand apart in the source and are kept apart here.

Tests used:
A549 = experiment: Growth of cancer cells (Cell Titer-Glo viability), A549; type: cell-based; details: Homo sapiens; A549 (wild-type EGFR), 72 hrs
Description: (§1) By testing the effect of the novel kinase inhibitors on the proliferation of cancer cells, the selectivity of the compounds of the present disclosure in inhibiting the proliferation of cancer cells was further assessed. In this example, human non-small cell lung cancer cell NCI-H1975 (expressing EGFR L858R/T790M double mutant gene), human skin squamous carcinoma cell A431 (expressing wild-type EGFR gene), non-small cell lung cancer NCI-H3255 (expressing EGFR L858R mutant gene), non-small cell lung cancer cell NCI-H3122 (expressing ALK gene), human non-small cell lung cancer cell A549 (expressing wild-type EGFR gene), human non-small cell lung cancer cell NCI-H2122 (expressing wild-type EGFR gene), human non-small cell lung cancer cell NCI-H460 (expressing wild-type EGFR gene), human non-small cell lung cancer cell PC-9 (expressing EGFR delE746_A750 mutant gene), Chinese hamster ovary cell CHO (Cricetulus griseus, hamster, Chinese, ovary), Chinese hamster lung cell CHL, human non-small cell lung cancer cell HCC827 (expressing mutant EGFR del19 gene), human lung adenocarcinoma cell HCC4006 (expressing mutant EGFR del19 gene), human non-small cell lung cancer cell NCI-H2228 (expressing wild-type ALK gene), and mouse primary B cell BaF3 were used, and the above cells were all purchased from ATCC (US). In addition, mouse BaF3-TEL-ALK (stably expressing ALK kinase), mouse BaF3-ALK-F1174L (stably expressing mutant ALK F1174L kinase), mouse BaF3-NPM-ALK (stably expressing ALK kinase), mouse BaF3-TEL-EGFR (stably expressing EGFR kinase), mouse BaF3-TEL-EGFR-T790M (stably expressing EGFR T790M mutant kinase), mouse BaF3-FL-EGFR-Del19 (stably expressing EGFR delE746_A750 mutant kinase), mouse BaF3-TEL-EGFR-L858R (stably expressing EGFR L858R mutant kinase), mouse BaF3-FL-EGFR-T790M-L858R (stably expressing EGFR T790M/L858R mutant kinase), mouse BaF3-TEL-INSR (stably expressing INSR protein), mouse BaF3-TEL-IGF1R (stably expressing IGF1R Protein), mouse BaF3-EML4-ALK (stably expressing EML4-ALK Protein), mouse BaF3-TEL-JAK3 (stably expressing JAK3 kinase protein), mouse BaF3-TEL-CSF1R (stably expressing CSF1R protein), and mouse BaF3-TEL-ALK-F1196M (stably expressing ALK F1196M mutant kinase) were also used in this example. The above cell lines were all established by our laboratory via the following process: kinase proteins or protein domain sequences of human ALK, ALK F1174L, EGFR, EGFR T790M, EGFR delE746_A750, EGFR L858, EGFR T790M/L858R, INSR, IGF1R, EML4-ALK, JAK3, CSF1R, ALK F1196M were amplified respectively by PCR, and were respectively inserted into MSCV-Puro vector (Clontech) with N-terminal TEL fragments and/or NPM fragments and/or TPR fragments; the resultants were stably transfected into mouse BaF3 cells by the means of retrovirus, and the IL-3 growth factors were removed, and eventually the ALK, ALK F1174L, EGFR, EGFR T790M, EGFR delE746_A750, EGFR L858, EGFR T790M/L858R, INSR, IGF1R, EML4-ALK, JAK3, CSF1R, ALK F1196M-transferred protein dependent cell lines were obtained.
(§2) The number of viable cells was determined quantitatively by a microplate reader using Cell Titer-Glo® (Promega, US) chemiluminescence cell viability assay kit.

BaF3-NPM-ALK = experiment: Cell growth (Cell Titer-Glo viability), BaF3-NPM-ALK; type: cell-based; details: Mus musculus; BaF3-NPM-ALK (stably expressing ALK kinase), 72 hrs
Description: as §1, §2

NCI-H2228 = experiment: Growth of cancer cells (Cell Titer-Glo viability), NCI-H2228; type: cell-based; details: Homo sapiens; NCI-H2228 (wild-type ALK), 72 hrs
Description: as §1, §2

A431 = experiment: Growth of cancer cells (Cell Titer-Glo viability), A431; type: cell-based; details: Homo sapiens
Description: as §1, §2

NCI-H2122 = experiment: Growth of cancer cells (Cell Titer-Glo viability), NCI-H2122; type: cell-based; details: Homo sapiens; NCI-H2122 (wild-type EGFR), 72 hrs
Description: as §1, §2

BaF3-TEL-ALK = experiment: Cell growth (Cell Titer-Glo viability), BaF3-TEL-ALK; type: cell-based; details: Mus musculus; BaF3-TEL-ALK (stably expressing ALK kinase), 72 hrs
Description: as §1, §2

NCI-H3122 = experiment: Growth of cancer cells (Cell Titer-Glo viability), NCI-H3122; type: cell-based; details: Homo sapiens
Description: as §1, §2

CHL = experiment: Cell growth (Cell Titer-Glo viability), CHL; type: cell-based, Chinese hamster; details: Cricetulus griseus
Description: as §1, §2

NCI-H1975 = experiment: Growth of cancer cells (Cell Titer-Glo viability), NCI-H1975; type: cell-based; details: Homo sapiens; NCI-H1975 (EGFR L858R/T790M double mutant), 72 hrs
Description: as §1, §2

CHO = experiment: Cell growth (Cell Titer-Glo viability), CHO; type: cell-based, Chinese hamster; details: Cricetulus griseus
Description: as §1, §2

PC-9 = experiment: Growth of cancer cells (Cell Titer-Glo viability), PC-9; type: cell-based; details: Homo sapiens; PC-9 (EGFR delE746_A750 mutant), 72 hrs
Description: as §1, §2

BaF3 = experiment: Cell growth (Cell Titer-Glo viability), BaF3; type: cell-based; details: BaF3 mouse primary B cell, 72 hrs
Description: as §1, §2

BaF3-FL-EGFR-Del19 = experiment: Cell growth (Cell Titer-Glo viability), BaF3-FL-EGFR-Del19; type: cell-based; details: Mus musculus; BaF3-FL-EGFR-Del19 (EGFR delE746_A750 mutant kinase), 72 hrs
Description: as §1, §2

BaF3-ALK-F1174L = experiment: Cell growth (Cell Titer-Glo viability), BaF3-ALK-F1174L; type: cell-based; details: Mus musculus; BaF3-ALK-F1174L (mutant ALK F1174L kinase), 72 hrs
Description: as §1, §2

HCC827 = experiment: Growth of cancer cells (Cell Titer-Glo viability), HCC827; type: cell-based; details: Homo sapiens; HCC827 (mutant EGFR del19), 72 hrs
Description: as §1, §2

BaF3-TEL-EGFR-T790M = experiment: Cell growth (Cell Titer-Glo viability), BaF3-TEL-EGFR-T790M; type: cell-based; details: Mus musculus; BaF3-TEL-EGFR-T790M (EGFR T790M mutant kinase), 72 hrs
Description: as §1, §2

[1] = A-431, A431 (wild-type EGFR), 72 hrs, read-out: GI50
[2] = NCI-H3122 (expressing ALK gene), 72 hrs, read-out: GI50
[3] = CHL Chinese hamster lung cell, 72 hrs, read-out: GI50
[4] = CHO Chinese hamster ovary cell, 72 hrs, read-out: GI50

Row | SMILES | GI50 (A549) [nM] | GI50 (BaF3-NPM-ALK) [nM] | GI50 (NCI-H2228) [nM] | GI50 (A431; [1]) [nM] | GI50 (NCI-H2122) [nM] | GI50 (BaF3-TEL-ALK) [nM] | GI50 (NCI-H3122; [2]) [nM] | GI50 (CHL; [3]) [nM] | GI50 (NCI-H1975) [nM] | GI50 (CHO; [4]) [nM] | GI50 (PC-9) [nM] | GI50 (BaF3) [nM] | GI50 (BaF3-FL-EGFR-Del19) [nM] | GI50 (BaF3-ALK-F1174L) [nM] | GI50 (HCC827) [nM] | GI50 (BaF3-TEL-EGFR-T790M) [nM] | GI50 (A431; A-431, 72 h) [nM] | GI50 (NCI-H3122; NCI-H3122, 72 h) [nM] | GI50 (CHL; CHL, 72 h) [nM] | GI50 (CHO; CHO, 72 h) [nM]
1 | C=CC(=O)Nc1cc(Nc2ncc(Cl)c(Nc3ccccc3S(=O)(=O)C(C)C)n2)c(OC)cc1N1CCN(Cc2ccccc2)CC1 [Compound 16, N-(2-(4-benzylpiperazin-1-yl)-5-(5-chloro-4-(2-(isopropylsulfonyl)phenylamino)pyrimidin-2-ylamino)-4-methoxyphenyl)acrylamide] | 4500 | 16 | 66 | 4200 | 1100 | 16 | 20 | > 10000 | 310 | 1300 | 230 | 4100 | – | – | – | – | – | – | – | –
2 | C=CC(=O)Nc1cc(Nc2ncc(Cl)c(Nc3ccc(F)c(Cl)c3)n2)c(OC)cc1N1CCN(C)CC1 [Compound 21, N-(5-(5-chloro-4-(3-chloro-4-fluorophenylamino)pyrimidin-2-ylamino)-4-methoxy-2-(4-methylpiperazin-1-yl)phenyl)acrylamide] | > 10000 | – | 78 | 1100 | 1400 | 43 | 300 | > 10000 | 100 | 6200 | 31 | 6800 | < 0.3 | 740 | 28 | 35 | – | – | – | –
3 | C[C@@H](Oc1cc(-c2cnn(C3CCNCC3)c2)cnc1N)c1c(Cl)ccc(F)c1Cl [Crizotinib, reference compound] | – | – | – | – | – | – | – | – | – | – | – | – | – | – | – | – | 1000 | 73 | 1900 | 6400
4 | C=CC(=O)Nc1cc(Nc2ncc(Cl)c(Nc3ccccc3S(=O)(=O)C(C)C)n2)c(OC)cc1N1CCN[C@H](C)C1 [Compound 28, (R)—N-(5-(5-chloro-4-(2-(isopropylsulfonyl)phenylamino)pyrimidin-2-ylamino)-4-methoxy-2-(3-methylpiperazin-1-yl)phenyl)acrylamide] | 480 | 1 | 31 | 71 | 621 | – | – | 3300 | 140 | 1700 | 71 | – | – | 1000 | 64 | – | – | – | – | –
5 | C=CC(=O)Nc1cc(Nc2ncc(Cl)c(Nc3ccccc3S(=O)(=O)C(C)C)n2)c(OC)cc1N1CCN[C@@H](C)C1 [Compound 29, (S)—N-(5-(5-chloro-4-(2-(isopropylsulfonyl)phenylamino)pyrimidin-2-ylamino)-4-methoxy-2-(3-methylpiperazin-1-yl)phenyl)acrylamide] | 690 | 3 | 73 | 100 | 680 | – | – | 3700 | 120 | 1500 | 62 | – | – | 950 | 59 | – | – | – | – | –
